Assay results from ChEMBL document CHEMBL1201862, “PubChem BioAssay data set” (2004).
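Protocol summary: plate cells (96-well), add compound at 5 concentrations, incubate 48 h, interpolate endpoints linearly. GI50 is the concentration that inhibits growth by half.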 Active and inactive are the calls of the source. Cut-off read from the data, not from the text of the source: active = GI50 up to about 1.1 µM and inactive = higher.

Key:
Experiment in all cases: NCI anticancer screen, dose series, 48 h
[1] = system: 786-0
[2] = system: A498
[3] = system: A549
[4] = system: ACHN
[5] = system: BT-549
[6] = system: CAKI-1
[7] = system: CCRF-CEM
[8] = system: COLO 205
[9] = system: DU-145
[10] = system: EKVX
[11] = system: HCC 2998
[12] = system: HCT-116
[13] = system: HCT-15
[14] = system: HL-60
[15] = system: HOP-62
[16] = system: HOP-92
[17] = system: HT-29
[18] = system: Hs-578T
[19] = system: IGROV-1
[20] = system: K562
[21] = system: KM12
[22] = system: LOX IMVI
[23] = system: M14
[24] = system: MCF7
[25] = system: MDA-MB-231
[26] = system: MDA-MB-435
[27] = system: MDA-N
[28] = system: MOLT-4
[29] = system: Malme-3M
[30] = system: NCI-H226
[31] = system: NCI-H23
[32] = system: NCI-H460
[33] = system: NCI-H522
[34] = system: NCI/ADR-RES
[35] = system: OVCAR-3
[36] = system: OVCAR-4
[37] = system: OVCAR-5
[38] = system: OVCAR-8
[39] = system: PC-3
[40] = system: RPMI-8226
[41] = system: RXF 393
[42] = system: SF-268
[43] = system: SF-295
[44] = system: SF-539
[45] = system: SK-MEL-28
[46] = system: SK-MEL-2
[47] = system: SK-MEL-5
[48] = system: SK-OV-3
[49] = system: SN12C
[50] = system: SNB-19
[51] = system: SNB-75
[52] = system: SW-620
[53] = system: T47D
[54] = system: TK-10
[55] = system: U-251
[56] = system: UACC-257
[57] = system: UACC-62
[58] = system: UO-31

Clc1ccc(CSCc2ccc(Cl)cc2Cl)c(Cl)c1
GI50 [1]: 60.8 µM (inactive)
GI50 [2]: 40.2 µM (inactive)
GI50 [3]: 34.3 µM (inactive)
GI50 [4]: > 100 µM (inactive)
GI50 [5]: 97.5 µM (inactive)
GI50 [6]: 86.1 µM (inactive)
GI50 [7]: 22.2 µM (inactive)
GI50 [8]: 65.8 µM (inactive)
GI50 [9]: 39.6 µM (inactive)
GI50 [10]: 57.5 µM (inactive)
GI50 [11]: 26.3 µM (inactive)
GI50 [12]: 41.4 µM (inactive)
GI50 [13]: 32.2 µM
GI50 [14]: 39.7 µM (inactive)
GI50 [15]: > 100 µM (inactive)
GI50 [16]: 54.2 µM (inactive)
GI50 [17]: 29.9 µM (inactive)
GI50 [18]: 79.4 µM (inactive)
GI50 [19]: 41.8 µM (inactive)
GI50 [20]: 57.5 µM (inactive)
GI50 [21]: 40.2 µM (inactive)
GI50 [22]: 36.1 µM (inactive)
GI50 [23]: 79.8 µM (inactive)
GI50 [24]: 27.7 µM (inactive)
GI50 [25]: > 100 µM (inactive)
GI50 [26]: 41 µM (inactive)
GI50 [27]: 38.8 µM (inactive)
GI50 [28]: 19.4 µM (inactive)
GI50 [29]: 28.2 µM (inactive)
GI50 [30]: > 100 µM (inactive)
GI50 [31]: 78.5 µM (inactive)
GI50 [32]: 95.9 µM (inactive)
GI50 [33]: 24.8 µM (inactive)
GI50 [34]: > 100 µM (inactive)
GI50 [35]: 88.3 µM (inactive)
GI50 [36]: 36.4 µM (inactive)
GI50 [37]: > 100 µM (inactive)
GI50 [38]: > 100 µM (inactive)
GI50 [39]: 44.1 µM (inactive)
GI50 [40]: 28.1 µM (inactive)
GI50 [41]: 20 µM (inactive)
GI50 [42]: 71 µM (inactive)
GI50 [43]: 37.3 µM (inactive)
GI50 [44]: > 100 µM (inactive)
GI50 [45]: 79.6 µM (inactive)
GI50 [46]: 21.3 µM (inactive)
GI50 [47]: 29.9 µM (inactive)
GI50 [48]: > 100 µM (inactive)
GI50 [49]: > 100 µM (inactive)
GI50 [50]: > 100 µM (inactive)
GI50 [51]: 48.3 µM (inactive)
GI50 [52]: 42.8 µM (inactive)
GI50 [53]: 22.5 µM (inactive)
GI50 [54]: > 100 µM (inactive)
GI50 [55]: 54 µM (inactive)
GI50 [56]: 25.6 µM (inactive)
GI50 [57]: 50 µM (inactive)
GI50 [58]: > 100 µM (inactive)
